Reference: BindingDB's records for doi:10.7270/Q2V986KM (Burnham Center For Chemical Genomics, 2011)

Target: T1, Carboxy-terminal domain RNA polymerase II polypeptide A small phosphatase 1 (Homo sapiens, UniProt Q9GZU7)
T1 sequence (Q9GZU7 whole entry): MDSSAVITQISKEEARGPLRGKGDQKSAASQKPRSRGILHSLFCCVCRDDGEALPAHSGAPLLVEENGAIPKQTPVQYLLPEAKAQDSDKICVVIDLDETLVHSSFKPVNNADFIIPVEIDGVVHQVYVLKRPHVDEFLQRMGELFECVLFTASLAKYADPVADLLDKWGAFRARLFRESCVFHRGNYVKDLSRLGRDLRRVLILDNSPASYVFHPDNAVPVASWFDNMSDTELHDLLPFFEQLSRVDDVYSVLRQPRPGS
Test: Ultra-high-throughput screening actives, CTDSP1 enzyme inhibition, concentration-response testing, biochemical, absorbance detection (AID 540297)

`N#CC1=c2sc(=Cc3ccco3)c(=O)n2C(=N)C(C#N)C1c1ccco1` (configuration not stated) [5-amino-7-(furan-2-yl)-2-(furan-2-ylmethylidene)-3-oxo-7H-[1,3]thiazolo[3,2-a]pyridine-6,8-dicarbonitrile] was tested, and the IC50 was 3.44 µM.
For `CCOc1ccccc1C(=O)c1cc(O)c2ccccc2c1O` [2-[(2-ethoxyphenyl)-oxidanyl-methyl]naphthalene-1,4-dione], the IC50 was 4.16 µM.
`CC(=O)C(C[N+]1(C)CCCCC1)N=O` (configuration not stated) showed an IC50 of 3.4 µM.
Work on `Cc1cc(C)n2c(SCC(=O)C(C#N)c3nc4ccccc4[nH]3)nnc2n1` (configuration not stated) [2-(1,3-dihydrobenzimidazol-2-ylidene)-4-[(5,7-dimethyl-[1,2,4]triazolo[4,3-a]pyrimidin-3-yl)sulfanyl]-3-oxidanylidene-butanenitrile] yielded an IC50 of 5.01 µM.
`O=C1C=CC(/C=C/c2nc(O)c([N+](=O)[O-])c(=O)[nH]2)C=C1O` (configuration not stated) [SMR000524347] gave an IC50 of 36.1 µM.
`CC(N=Nc1ccc(Cl)c(C(=O)O)c1)c1ccc[nH]1` (configuration not stated) [2-chloro-5-[2-[(1Z)-1-pyrrol-2-ylideneethyl]hydrazinyl]benzoic acid] showed an IC50 of 4.28 µM.
`C=CCC1C=C(/C=C/c2nc(O)c([N+](=O)[O-])c(=O)[nH]2)C=C(OC)C1=O` (configuration not stated) [MLS000716350] was tested, and the IC50 was 19.3 µM.
Work on `COc1ccc(CN=Nc2nc(O)c(CC(=O)O)s2)cc1OCc1ccc(Cl)cc1Cl` [[2-({3-[(2,4-dichlorobenzyl)oxy]-4-methoxybenzylidene}hydrazono)-4-oxo-1,3-thiazolidin-5-yl]acetic acid] yielded an IC50 of 4.48 µM.
With `C[N+]1=C(CC=Nc2ccccc2Cl)C(C)(C)c2ccccc21` [SMR000173746] the IC50 was 5.96 µM.
`C/C(Nc1ccc(F)cc1)=[N+](/C)CCNS(=O)(=O)c1ccc(Cl)cc1` gave an IC50 of 5.86 µM.
With `Cc1ccc(C(=O)NN=C/C=C/c2ccc(Br)cc2)cn1` [MLS000723380] the IC50 was 24.1 µM.
`O=C(N/N=C/C1C=C(Cl)C=C([N+](=O)[O-])C1=O)c1cc(-c2ccccn2)nc2ccccc12` (configuration not stated) [MLS000773704] gave an IC50 of 1.85 µM.
Work on `Cc1ccc(OCC(=O)N/N=C/c2ccc(O)c([N+](=O)[O-])c2)c([N+](=O)[O-])c1` [SMR000312577] yielded an IC50 of 8.42 µM.
Molecule `COc1ccc(/C=C/C(=O)Oc2cccc(C=NNC(=O)c3cccc(F)c3)c2)cc1` [[3-[[(3-fluorobenzoyl)hydrazinylidene]methyl]phenyl] (E)-3-(4-methoxyphenyl)prop-2-enoate] has an IC50 of 12.8 µM.
`CCN(CC)P(=O)(NC(=O)C(Cl)(Cl)Cl)N(CC)CC` [MLS000564159] gave an IC50 of 2.49 µM.
Molecule `CCCCCn1cc(O)c(-c2nc(-c3ccc(Cl)cc3)cs2)c1N` [5-azanyl-4-[4-(4-chlorophenyl)-1,3-thiazol-2-yl]-1-pentyl-2H-pyrrol-3-one] has an IC50 of 5.38 µM.
`O=NCc1cc(Br)ccc1OCC(=O)O` [2-[4-bromanyl-2-(hydroxyiminomethyl)phenoxy]ethanoic acid] was tested, and the IC50 was 8.03 µM.
